The values that follow come from patent publication US8063071B2 (GlaxoSmithKline, LLC, priority 2007, dated 2011).

Each structure is given as a SMILES string. Counter-ions that a name gives are not always drawn. A value given as a limit tells only on which side of the number the result lay.

The term inhibition denotes the drop in the measured response relative to a control, in per cent.

The first assay concerns human monocyte stimulated cytokine production (TNF-α). Nature of the assay: Monocyte assay (LPS-stimulated TNF-α production). The settings on record: 24 h, 200 ng/mL LPS, TNF-α by ELISA. Type of assay: cell-based. The protocol: Effect of IKK-β inhibition on human monocyte stimulated cytokine production was assessed as follows: Monocytes were isolated from heparinized whole blood by Ficoll gradient, followed by purification of CD14+ cells using MACS magnetic cell separation beads. Isolated monocytes were then adhered to 96-well culture plates at 1×10^6 cells/mL in RPMI 1640 10% FBS (JRH Biosciences, Lenexa Kans.) for 2 h. Test compounds are added to the wells 30 minutes prior to stimulation with a final vehicle concentration of 0.1% DMSO. Monocytes were activated by the addition of 200 ng/mL endotoxin (LPS; E. coli serotype 026:B6)(Sigma, St. Louis, Mo.) and incubated for 24 hrs at 37 C. Cell-free supernates were analyzed by ELISA for TNF-α using Pharmingen matched pair Abs. Viability of the cells was determined by 10% trypan blue exclusion.
In general terms: In an ELISA, binding on a coated surface is turned into a signal by an enzyme label.
Compound `CCS(=O)(=O)N1CCC(c2c[nH]c3c(C(N)=O)cc(-c4ccc5c(c4)C(NCC(C)C)CCC5)cc23)CC1` (stereo not shown) [Example 34, 3-[1-(ethylsulfonyl)-4-piperidinyl]-5-{8-[(2-methylpropyl)amino]-5,6,7,8-tetrahydro-2-naphthalenyl}-1H-indole-7-carboxamide trifluoroacetate] showed an IC50 of more than 1 µM. On the same count and under the same terms, the result for `CCS(=O)(=O)N1CCC(c2c[nH]c3c(C(N)=O)cc(-c4csc(CNCC(C)(C)C)c4)cc23)CC1` [Example 117, 5-(5-{[(2,2-dimethylpropyl)amino]methyl}-3-thienyl)-3-[1-(ethylsulfonyl)-4-piperidinyl]-1H-indole-7-carboxamide trifluoroacetate] reads not above 1.5 µM. On the same count and under the same terms, the result for `CCS(=O)(=O)N1CCC(c2c[nH]c3c(C(N)=O)cc(-c4cccc(-n5cccn5)c4)cc23)CC1` [Example 164, 3-[1-(ethylsulfonyl)-4-piperidinyl]-5-[3-(1H-pyrazol-1-yl)phenyl]-1H-indole-7-carboxamide] reads not above 1.5 µM.

The same assay, now with this note: read-out: inhibition at 300 nM in the monocyte assay.
Consider `CCS(=O)(=O)N1CCC(c2c[nH]c3c(C(N)=O)cc(-c4cc(CNC(C)C)c5c(c4)OCC5)cc23)CC1` [Example 59, 3-[1-(ethylsulfonyl)-4-piperidinyl]-5-(4-{[(1-methylethyl)amino]methyl}-2,3-dihydro-1-benzofuran-6-yl)-1H-indole-7-carboxamide], for which the inhibition at 0.3 µM was 0 to 60%. On the same count and under the same terms, the value for `CCS(=O)(=O)N1CCC(c2c[nH]c3c(C(N)=O)cc(-c4csc(CN5CCCC5CC(C)C)c4)cc23)CC1` (stereo not shown) [Example 97, 3-[1-(ethylsulfonyl)-4-piperidinyl]-5-(5-{[2-(2-methylpropyl)-1-pyrrolidinyl]methyl}-3-thienyl)-1H-indole-7-carboxamide] was 0 to 60%; that for `CCS(=O)(=O)N1CCC(c2c[nH]c3c(C(N)=O)cc(-c4cncc(CNCC5CC5)c4)cc23)CC1` [Example 173, 5-(5-{[(cyclopropylmethyl)amino]methyl}-3-pyridinyl)-3-[1-(ethylsulfonyl)-4-piperidinyl]-1H-indole-7-carboxamide] was 0 to 60%.

Another assay deals with T1, Recombinant human IKKβ (residues 1-737) (Homo sapiens, UniProt O14920).
T1 construct: Recombinant human IKKβ (residues 1-737); GST (C); made in house
T1 sequence (O14920 1-737): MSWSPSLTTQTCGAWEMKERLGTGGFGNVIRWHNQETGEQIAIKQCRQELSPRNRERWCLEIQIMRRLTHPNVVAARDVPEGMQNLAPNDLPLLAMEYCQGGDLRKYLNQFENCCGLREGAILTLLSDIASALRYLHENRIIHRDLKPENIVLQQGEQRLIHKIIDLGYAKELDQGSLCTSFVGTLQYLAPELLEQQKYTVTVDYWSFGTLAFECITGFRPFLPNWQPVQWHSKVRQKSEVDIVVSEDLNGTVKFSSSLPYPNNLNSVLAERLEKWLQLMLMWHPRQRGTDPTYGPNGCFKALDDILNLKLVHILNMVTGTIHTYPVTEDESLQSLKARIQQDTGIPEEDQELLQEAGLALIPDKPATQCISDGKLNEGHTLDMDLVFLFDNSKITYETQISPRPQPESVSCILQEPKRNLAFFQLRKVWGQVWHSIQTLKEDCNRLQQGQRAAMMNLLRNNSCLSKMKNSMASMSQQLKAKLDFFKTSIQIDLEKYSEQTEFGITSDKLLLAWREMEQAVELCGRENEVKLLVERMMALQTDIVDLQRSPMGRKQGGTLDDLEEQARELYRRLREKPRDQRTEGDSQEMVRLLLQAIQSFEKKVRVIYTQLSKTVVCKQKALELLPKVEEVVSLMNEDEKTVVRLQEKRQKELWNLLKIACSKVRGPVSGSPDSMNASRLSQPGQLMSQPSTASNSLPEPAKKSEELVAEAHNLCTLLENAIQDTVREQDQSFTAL
Description: IKK2 assay (TR-FRET). Type of assay: biochemical. The note with it: ATP 1 μM final, read-out: pIC50 against IKK2 (converted). A digest of the protocol: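 Baculovirus-expressed C-terminal GST-tagged IKKβ (0.5-5 nM final) in HEPES pH 7.4, MgCl2, CHAPS, DTT, BSA with 1.7% DMSO; 25 nM GST-IB substrate and 1 μM ATP, 15 min at room temperature. EDTA stop; phospho-Ser32/36 detected by Eu-antibody/APC-anti-GST TR-FRET, 665/620 nm ratio.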
Turning to `CCS(=O)(=O)N1CCC(c2c[nH]c3c(C(N)=O)cc(-c4cccc(CNOC)c4)cc23)CC1` [Example 391, 3-[1-(ethylsulfonyl)-4-piperidinyl]-5-(3-{[(methyloxy)amino]methyl}phenyl)-1H-indole-7-carboxamide], the IC50 is not above 10 µM. The same measure, in the same setting: the value for `CC(C)S(=O)(=O)N1CCC(c2c[nH]c3c(C(N)=O)cc(-c4csc(CN(C)CC(N)=O)c4)cc23)CC1` [Example 398, 5-(5-{[(2-amino-2-oxoethyl)(methyl)amino]methyl}-3-thienyl)-3-{1-[(1-methylethyl)sulfonyl]-4-piperidinyl}-1H-indole-7-carboxamide] was not above 10 µM; that for `CCS(=O)(=O)N1CCC(c2c[nH]c3c(C(N)=O)cc(-c4csc(CN5CCCC5COC)c4)cc23)CC1` (stereo not shown) [Example 405, 3-[1-(ethylsulfonyl)-4-piperidinyl]-5-[5-({2-[(methyloxy)methyl]-1-pyrrolidinyl}methyl)-3-thienyl]-1H-indole-7-carboxamide trifluoroacetate] was not above 10 µM. `CCS(=O)(=O)N1CCC(c2c[nH]c3c(C(N)=O)cc(-c4csc(CN5CCCC(C(F)(F)F)C5)c4)cc23)CC1` (stereo not shown) [Example 407, 3-[1-(ethylsulfonyl)-4-piperidinyl]-5-(5-{[3-(trifluoromethyl)-1-piperidinyl]methyl}-3-thienyl)-1H-indole-7-carboxamide trifluoroacetate]: the IC50 is not above 10 µM. Still for that read-out and setting: the result for `CCS(=O)(=O)N1CCC(c2c[nH]c3c(C(N)=O)cc(-c4csc(CN(C)CCNC(C)=O)c4)cc23)CC1` [Example 410, 5-(5-{[[2-(acetylamino)ethyl](methyl)amino]methyl}-3-thienyl)-3-[1-(ethylsulfonyl)-4-piperidinyl]-1H-indole-7-carboxamide trifluoroacetate] reads not above 10 µM. As to `CCS(=O)(=O)N1CCC(c2c[nH]c3c(C(N)=O)cc(-c4csc(CN(C)[C@@H]5CCC[C@H]5O)c4)cc23)CC1` [Example 411, 3-[1-(ethylsulfonyl)-4-piperidinyl]-5-(5-{[[(1R,2R)-2-hydroxycyclopentyl](methyl)amino]methyl}-3-thienyl)-1H-indole-7-carboxamide trifluoroacetate], the IC50 is not above 10 µM.

For the compound `CCS(=O)(=O)N1CCC(c2c[nH]c3c(C(N)=O)cc(-c4csc(CN(C)C[C@H](C)O)c4)cc23)CC1` [Example 413, 3-[1-(ethylsulfonyl)-4-piperidinyl]-5-(5-{[[(2S)-2-hydroxypropyl](methyl)amino]methyl}-3-thienyl)-1H-indole-7-carboxamide trifluoroacetate], the IC50 is not above 10 µM. The same measure, in the same setting: the result for `CCS(=O)(=O)N1CCC(c2c[nH]c3c(C(N)=O)cc(-c4csc(CN(C)C[C@H]5CCCO5)c4)cc23)CC1` [Example 414, 3-[1-(ethylsulfonyl)-4-piperidinyl]-5-[5-({methyl[(2R)-tetrahydro-2-furanylmethyl]amino}methyl)-3-thienyl]-1H-indole-7-carboxamide trifluoroacetate] reads not above 10 µM. Consider `CCS(=O)(=O)N1CCC(c2c[nH]c3c(C(N)=O)cc(-c4csc(CN(C)CCOCCO)c4)cc23)CC1` [Example 415, 3-[1-(ethylsulfonyl)-4-piperidinyl]-5-(5-{[{2-[(2-hydroxyethyl)oxy]ethyl}(methyl)amino]methyl}-3-thienyl)-1H-indole-7-carboxamide trifluoroacetate], for which the IC50 is not above 10 µM. Still for that read-out and setting: the result for `CCS(=O)(=O)N1CCC(c2c[nH]c3c(C(N)=O)cc(-c4ccc5c(c4)CN(C(C)C(C)C)C5)cc23)CC1` (stereo not shown) [Example 421, 5-[2-(1,2-dimethylpropyl)-2,3-dihydro-1H-isoindol-5-yl]-3-[1-(ethylsulfonyl)-4-piperidinyl]-1H-indole-7-carboxamide] reads not above 10 µM; that for `CCC(C)N1Cc2ccc(-c3cc(C(N)=O)c4[nH]cc(C5CCN(S(=O)(=O)CC)CC5)c4c3)cc2C1` (stereo not shown) [Example 422, 3-[1-(ethylsulfonyl)-4-piperidinyl]-5-[2-(1-methylpropyl)-2,3-dihydro-1H-isoindol-5-yl]-1H-indole-7-carboxamide], not above 10 µM. Regarding `CCC(CC)N1Cc2ccc(-c3cc(C(N)=O)c4[nH]cc(C5CCN(S(=O)(=O)CC)CC5)c4c3)cc2C1` [Example 423, 5-[2-(1-ethylpropyl)-2,3-dihydro-1H-isoindol-5-yl]-3-[1-(ethylsulfonyl)-4-piperidinyl]-1H-indole-7-carboxamide], the IC50 is not above 10 µM. On to `CCS(=O)(=O)N1CCC(c2c[nH]c3c(C(N)=O)cc(-c4ccc5c(c4)CN(C4CCCC4)C5)cc23)CC1` [Example 424, 5-(2-cyclopentyl-2,3-dihydro-1H-isoindol-5-yl)-3-[1-(ethylsulfonyl)-4-piperidinyl]-1H-indole-7-carboxamide], for which the IC50 was not above 10 µM. The same measure, in the same setting: the result for `CCS(=O)(=O)N1CCC(c2c[nH]c3c(C(N)=O)cc(-c4ccc5c(c4)CN(CC4CC4)C5)cc23)CC1` [Example 425, 5-[2-(cyclopropylmethyl)-2,3-dihydro-1H-isoindol-5-yl]-3-[1-(ethylsulfonyl)-4-piperidinyl]-1H-indole-7-carboxamide] reads not above 10 µM; that for `CCS(=O)(=O)N1CCC(c2c[nH]c3c(C(N)=O)cc(-c4ccc5c(c4)CN(CC(C)(C)C)C5)cc23)CC1` [Example 426, 5-[2-(2,2-dimethylpropyl)-2,3-dihydro-1H-isoindol-5-yl]-3-[1-(ethylsulfonyl)-4-piperidinyl]-1H-indole-7-carboxamide], not above 10 µM; that for `CCS(=O)(=O)N1CCC(c2c[nH]c3c(C(N)=O)cc(-c4ccc5c(c4)CN(C(=O)NS(=O)(=O)c4ccccc4)C5)cc23)CC1` [Example 428, 3-[1-(ethylsulfonyl)-4-piperidinyl]-5-(2-{[(phenylsulfonyl)amino]carbonyl}-2,3-dihydro-1H-isoindol-5-yl)-1H-indole-7-carboxamide], not above 10 µM.
